Test results reported in patent US4994459A, “Aryloxypropane substituted piperazine derivatives with antiarrhythmic and antifibrillatory activity” (American Home Products Corporation, priority 1989, dated 1991).

Columns and labels:
[1] = system: Purkinje fiber; assay: Cardiac electrophysiology in vitro, dog Purkinje fibers (action potential parameters); assay type: cell-based; design: unit not given here; details: 3 μM
Description: The compounds of this invention display a Class III antiarrhythmic profile. The Class III antiarrhythmic activity was established in vitro and in vivo in accordance with the following standard test procedures. Bundles of free-running Purkinje fibers with attached myocardium obtained from either ventricle of adult dog heart were pinned without stretching to the bottom of a 10 mL tissue chamber and continuously superfused with oxygenated Tyrode's solution at a flow rate of 5 mL/min. The composition of the Tyrode's solution was (mM): NaCl, 138; KCl 4; CaCl2, 2; MgCl2 0.5; NaHCO3, 24; dextrose, 5.5. The solution was aerated with 95% O2 -5% CO2 at 37° C. Bath temperature was maintained at 37±0.5° C. by circulating the pre-warmed superfusate through a thermostatically controlled water bath immediately prior to entering the tissue chamber. The preparations were stimulated through bipolar Teflon-coated silver wires, bared at the tips, placed on the endocardial surface of the attached myocardium, using a digital stimulator set to deliver constant current pulses 1.5-msec in duration at cycle lengths of 300 or 1000 msec. Stimulus strength was set at approximately 2×diastolic threshold, and adjusted as required throughout the experiment. All preparations were allowed to equilibrate in the tissue chamber for at least 1 hour before measurements were begun. Subsequently, a minimum of 60 minutes were allowed for equilibration with each drug-containing superfusate before post-drug measurements were made. Impalements were made at 6 to 10 sites throughout the preparation before and after drug exposure. Offset potentials were rechecked after each impalement. Glass microelectrodes filled with 3M KCl were coupled to high impedance negative capacitance electrometers and Ag/AgCl half-cells used as reference electrodes. The first derivative of the action potential upstroke (Vmax) was obtained using an analog differentiator circuit, coupled to a peak-hold circuit that retained the recorded value of Vmax for 30 to 70-msec. […] In addition, chart paper recordings of Vmax were obtained using the peak-hold device output. Fresh stock solutions of drug were prepared for each experiment. […] Action potential (AP) parameters measured included: diastolic take-off potential or activation voltage, (Vact); AP overshoot (Vos); AP duration measured as the time taken to repolarize to -20 mV (APD-20),-60 mV (APD-60), and -80 mV (APD-80); and maximal upstroke velocity (Vmax). An increase in APD-60 that occurred without a significant change in Vmax was taken, by definition, to indicate Class III antiarrhythmic activity "in vitro".

[2] = system: Anesthetized Dog; assay: Cardiac electrophysiology in anesthetized dogs (refractory periods, conduction times, heart rate, blood pressure); assay type: in vivo; design: ACT (atrial conduction time), change / VCT (ventricular conduction time), change / BP, change: unit not given here; details: 5 mg/kg i.v.; for ACT (atrial conduction time), change / AERP (refractory period of the right atrium), change / VCT (ventricular conduction time), change / VERP (refractory period of the right ventricle), change: BCL = 300, Example 1 n = 3; for BP, change / HR, change: Example 1 n = 3
Description: The compounds of this invention display a Class III antiarrhythmic profile. The Class III antiarrhythmic activity was established in vitro and in vivo in accordance with the following standard test procedures. Mongrel dogs of both sexes weighing 12 to 18 kg were anesthetized with sodium pentobarbital (35 mg/kg i.v. supplemented with 5 mg/kg/h) and artificially ventilated with room air (minute volume: 200 mL/kg). The heart was exposed by a right thoractomy performed at the fifth intercostal space and suspended in a pericardial cradle. Epicardial electrodes for stimulation and recording were sutured to the free wall of the lower right atrium and near the base of the right ventricle. Each electrode set contained a linear array of electrodes consisting of 1 bipolar stimulating electrode and 2 bipolar recording electrodes embedded in a rigid acrylic matrix. The stimulating bipole was 7 mm from the proximal recording electrode, which in turn was 10 mm from the distal recording bipole. Each electrode array was oriented to be parallel to the epicardial fiber axis. […] Conduction times and refractory periods were measured during pacing at a cycle length of 300 msec. The dog heart was paced by a stimulator driving a constant current isolation unit. […] Diastolic threshold was determined before and after each trial. Refractory periods of the right atrium and right ventricle ([…]) were determined by introducing an extrastimulus (S2) every 8 paced beats (S1). The extrastimulus was followed by a 4-second rest interval during which no pacing occurred. Both S1 and S2 were of identical intensity (twice threshold) and duration (2 msec). […] This S1 -S2 interval was considered to define effective refractory period. Atrial and ventricular (ACT and VCT) conduction times were measured as the time interval between the 2 electrograms recorded at the proximal and distal sites of the recording electrode array. The time of activation for electrograms with predominantly biphasic complexes was taken as the moment when the trace crossed the zero reference line, and for triphasic complexes, as the peak of the major deflection. Animals received the test compound by i.v. injection. Drugs were administered cumulatively at the following dose levels: 1, 2.5, 5, 7.5, 10 mg/kg. Each dose was administered over a 3 minute period. Electrophysiologic testing was performed 15 minutes following the end of dosing. Every 30 minutes the dog received the next incremental dose. […] An increase in ERP that occurred without a significant decrease of CT was taken, by definition to indicate "in vivo" Class III antiarrhythmic activity.

[3] = system: Pigs (Durrock-Landrace cross); assay: Coronary occlusion-reperfusion in anesthetized pigs (20 min LAD occlusion, then reperfusion; survival); assay type: in vivo, pig; details: 20 minutes before LAD occlusion
Description: Pigs (Durrock-Landrace cross) of either sex weighing 12 to 24 kg were anesthetized by administration of sodium pentobarbital. (35 mg/kg i.p. and supplemented with 5 mg/kg/hr. i.v.) and ventilated with room air following tracheotomy (minute volume: 200 mL/kg). The left femoral artery and vein were cannulated for the recording of blood pressure and for drug administration, respectively. Blood pressure and lead II EKG were recorded on a chart recorder.
The heart was exposed by a left thoracotomy performed at the fifth intercostal space. A silk ligature was placed beneath the left anterior descending coronary artery (LAD) about 1.5 cm from its origin and distal to the septal artery branch. The artery was occluded by lifting the vessel with the ligature and quickly placing a bull-dog clamp (3×12 mm padded jaws) over the artery. The clamp remained in place for a period of 20 minutes. Removal of the clamp produced a rapid reperfusion of the ischemic myocardium as evidenced by the return of normal color to the myocardium distal to the site of occlusion. Ectopic activity was monitored during occlusion and reperfusion by recording the lead II EKG at chart speeds of 5 to 25 mm/second. Animals were allowed to stabilize for at least 30 minutes prior to drug administration.
Pigs were randomized into groups receiving either vehicle or test drug at a given dose (1-5 mg/kg i.v.) 20 minutes before LAD occlusion. Animals surviving the period of occlusion were subsequently reperfused. No attempt was made to resuscitate animals experiencing ventricular fibrillation (VF) at any time following occlusion. In the absence of treatment, less than 30 percent of the animals survive the 20 minute period of occlusion, with a mean time to death onset of 8 to 12 minutes. Effective compounds either prevent death due to VF or prolong survival time.

[4] = dextro enantiomer; Taggart et al. 1985, McComb et al. 1985; cited from earlier work

| Compound | APD-60 (AP duration, time to repolarize to -60 mV), change ([1]; BCL = 300, Example 1 n = 2) | Vmax (maximal upstroke velocity), change ([1]; BCL = 300, Example 1 n = 2) | APD-60 (AP duration, time to repolarize to -60 mV), change ([1]; BCL = 1000, Example 1 n = 3) | Vmax (maximal upstroke velocity), change ([1]; BCL = 1000, Example 1 n = 3) | ACT (atrial conduction time), change [2] | AERP (refractory period of the right atrium), change [2] | VCT (ventricular conduction time), change [2] | VERP (refractory period of the right ventricle), change [2] | BP, change [2] | HR, change [2] | Fraction of pigs surviving 20 min. occlusion ([3]; 2.5 mg/Kg i.v.) | Fraction of pigs surviving reperfusion ([3]; 2.5 mg/Kg i.v.) | Fraction of pigs surviving 20 min. occlusion ([3]; 5 mg/Kg i.v.) | Fraction of pigs surviving reperfusion ([3]; 5 mg/Kg i.v.) | selective Class III antiarrhythmic activity [4] |
| --- | --- | --- | --- | --- | --- | --- | --- | --- | --- | --- | --- | --- | --- | --- | --- |
| CS(=O)(=O)Nc1ccc(OCC(O)CN2CCN(c3ncccn3)CC2)cc1 (centres unmarked) [Example 4, N-[4-[2-Hydroxy-3-[4-(2-pyrimidinyl)-1-piperazinyl]-propoxy]phenyl]methanesulfonamide] | 16 | -12 | 33 | -17 | -4 | 24 | 0 | 13 | -16 | -14 |  |  |  |  |  |
| Cl.Cl.O=[N+]([O-])c1ccc(OCC(O)CN2CCN(c3ccccn3)CC2)cc1 (racemic) [Example 1, α-[(4-Nitrophenoxy)methyl]-4-(2-pyridinyl)-1-piperazineethanol Dihydrochloride] | 15 | -19 | 29 ± 6 | -8 ± 5 | 16 ± 1 | 69 ± 7 | -7 ± 9 | 25 ± 3 | -33 ± 9 | -33 ± 1 | 1/4 | 0/4 | 4/4 | 2/4 |  |
| CS(=O)(=O)Nc1ccc(OCC(O)CN2CCN(c3ccccn3)CC2)cc1 (centres unmarked) [Example 5, N-[4-[2-Hydroxy-3-[4-(2-pyridinyl)-1-piperazinyl]propoxy]phenyl]methanesulfonamide] | 30 | 7 | 50 | 14 | 6 | 56 | 3 | 13 | -25 | -15 |  |  |  |  |  |
| CC(C)NCC(O)c1ccc(NS(C)(=O)=O)cc1 (centres unmarked) [Sotalol, 4-(2-isopropylamino-1-hydroxyethyl)-methane-sulfonamide] |  |  |  |  |  |  |  |  |  |  |  |  |  |  | selective Class III antiarrhythmic activity |
